Earlier results as cited in patent US9817001B2, “Methods for determining LDL cholesterol treatment” (Boston Heart Diagnostics Corporation, priority 2008, dated 2017).

Tested on: HDL particle profile (α-1 HDL, preβ-1 HDL)
Conditions: for effect on preβ-1 HDL level: by decreasing CETP activity; for effect on apoA-I kinetics: in vivo

Row | SMILES | effect on preβ-1 HDL level | effect on apoA-I kinetics | statin effectiveness to change the HDL particle profile beneficially (statin therapy, decreasing pre-β1 and increasing α-1)
1 | CC(C)c1c(C(=O)Nc2ccccc2)c(-c2ccccc2)c(-c2ccc(F)cc2)n1CC[C@@H](O)C[C@@H](O)CC(=O)O [atorvastatin] | significantly decrease | little or no effect | 
2 | CC(C)c1nc(N(C)S(C)(=O)=O)nc(-c2ccc(F)cc2)c1/C=C/[C@@H](O)C[C@@H](O)CC(=O)O [Rosuvastatin, rosuvastatin] | significantly decrease | little or no effect | 
3 | CC[C@H](C)C(=O)O[C@H]1C[C@@H](C)C=C2C=C[C@H](C)[C@H](CC[C@@H]3C[C@@H](O)CC(=O)O3)[C@H]21 [lovastatin] |  |  | almost no change
